Assay results published in patent US10456414B2, “Methods for treating HCV” (priority 2011, dated 2019).
Like-named read-outs stand apart in the source and are kept apart here.

Key:
HCV genotype 1a replicon [1] = test: HCV genotype 1a replicon assay, EC50 (Biological Example 3); type: cell-based; conditions: Hepatitis C virus, 72 h, 3 days, average ± standard deviation, read-out: EC50
[2] = test system: Huh-7 cells carrying a HCV genotype 1a replicon; test: HCV genotype 1a replicon assay, CC50 by calcein AM (Biological Example 3); type: cell-based; conditions: genotype 1a replicon cells, 3 days, read-out: CC50
Procedure: The CC50 assay was performed first.

[3] = test system: 1b Huh-luc replicon cells; test: Antiviral combination studies with Compound 5, MacSynergy II; type: cell-based, HCV; conditions: in combination with Compound 5, mean ± standard deviation
Procedure: Combination data were analyzed based on the Bliss Independence model using MacSynergy II software. Results of the combination assays were expressed as mean synergy and antagonism volumes (nM^2) calculated at 95% confidence from two independent experiments performed in triplicate.

GT1b wild-type replicon = test: microbe, parasite or virus in culture; type: cell-based, HCV; conditions: Hepatitis C virus, 72 h, 3 days
[4] = test system: GT1b NS5B S282T mutant replicon; test: microbe, parasite or virus in culture; type: cell-based, HCV
GT2a wild-type replicon = test: microbe, parasite or virus in culture; type: cell-based, HCV; conditions: Hepatitis C virus, 72 h, 3 days
[5] = test system: GT2a NS5B S282T mutant replicon; test: microbe, parasite or virus in culture; type: cell-based, HCV
[6] = test system: GT2b wild-type chimeric replicon (2b NS5B in GT1b backbone); test: microbe, parasite or virus in culture; type: cell-based, HCV; conditions: Hepatitis C virus, 72 h, read-out: EC50 WT
[7] = test system: GT2b NS5B S282T mutant chimeric replicon; test: microbe, parasite or virus in culture; type: cell-based, HCV
[8] = test system: GT3a wild-type chimeric replicon (3a NS5B in GT1b backbone); test: microbe, parasite or virus in culture; type: cell-based, HCV; conditions: Hepatitis C virus, 72 h, read-out: EC50 WT
[9] = test system: GT3a NS5B S282T mutant chimeric replicon; test: microbe, parasite or virus in culture; type: cell-based, HCV
[10] = test system: GT4a wild-type chimeric replicon (4a NS5B in GT1b backbone); test: microbe, parasite or virus in culture; type: cell-based, HCV; conditions: Hepatitis C virus, 72 h, read-out: EC50 WT
[11] = test system: GT4a NS5B S282T mutant chimeric replicon; test: microbe, parasite or virus in culture; type: cell-based, HCV
[12] = Drug-drug interactions of co-administered compounds (exposure); type: in vivo; conditions: co-administered with Compound 2
Procedure: With respect to Compounds 9 and 10, or pharmaceutically acceptable salts thereof, the composition may comprise 10 mg to 1000 mg per day (according to US 2010/0298257). With respect to Compound 11, or pharmaceutically acceptable salts thereof, the composition may comprise 1 mg to 1000 mg per day (according to US 2010/0081628).

[13] = test system: Genotype 1a replicon, NS5A M28T
[14] = test system: Genotype 1a replicon, NS5A Q30H
[15] = test system: Genotype 1a replicon, NS5A Q30R
[16] = test system: Genotype 1a replicon, NS5A Q30E
[17] = test system: Genotype 1a replicon, NS5A L31M
[18] = test system: Genotype 1a replicon, NS5A Y93C
[19] = test system: Genotype 1a replicon, NS5A Y93H
[20] = test system: Huh-7 cells carrying an HCV genotype 1a replicon; conditions: with 320 nM Compound 10 and the highest concentration of the listed compound
genotype 1b replicon RNA = test: Replicon RNA suppression, 6 day assay, QRT-PCR
[21] = test system: Genotype 1 b replicon cells; test: Compound combination replicon cure assay, colony formation; conditions: 6 days treatment at the same concentrations, then G418 for 14 days
HCV genotype 1a replicon [22] = test: HCV genotype 1a replicon assay, EC50 (Biological Example 8); conditions: Hepatitis C virus, 72 h
HCV genotype 1a replicon [23] = test: Antiviral combination studies with Compound 4, MacSynergy II
[24] = test system: Huh-7 cells carrying a HCV genotype 1a replicon; test: Cytotoxicity combination studies with Compound 4, MacSynergy II
[25] = HCV genotype 1a replicon assay, CC50 by calcein AM (Biological Example 8); conditions: human, Huh-7 cells carrying an HCV genotype 1a replicon
[26] = in combination with Compound 4, mean ± standard deviation

Q: Which EC50 (HCV genotype 1a replicon [1]) does the source give for COC(=O)N[C@H](C(=O)N1CC2(CC2)C[C@H]1c1ncc(-c2ccc3c(c2)C(F)(F)c2cc(-c4ccc5nc([C@@H]6[C@H]7CC[C@H](C7)N6C(=O)[C@@H](NC(=O)OC)C(C)C)[nH]c5c4)ccc2-3)[nH]1)C(C)C [Compound 6, (1-{3-[6-(9,9-Difluoro-7-{2-[5-(2-methoxycarbonylamino-3-methyl-butyryl)-5-aza-spiro[2.4]hept-6-yl]-3H-imidazol-4-yl}-9H-fluoren-2-yl)-1H-benzoimidazol-2-yl]-2-aza-bicyclo[2.2.1]heptane-2-carbonyl}-2-methyl-propyl)-carbamic acid methyl ester] here?
A: 0.033 ± 0.011 nM

Q: What about the CC50 [2] of the same compound?
A: > 44400 nM

Q: And the “Antagonism Volume” value [3]?
A: 0 ± 0 nM^2

Q: And the “Synergy Volume” value [3]?
A: 34 ± 19 nM^2

Q: And the EC50 (GT1b wild-type replicon)?
A: 0.5 nM

Q: And the Fold change ([4]; GT1b, S282T EC50 versus corresponding wild type)?
A: 0.8

Q: What about the EC50 ([4]; Hepatitis C virus, GT1B, 72 h, read-out: EC50 S282T) of the same compound?
A: 0.4 nM

Q: What about the EC50 (GT2a wild-type replicon) of the same compound?
A: 5160 nM

Q: And the Fold change ([5]; GT2a, S282T EC50 versus corresponding wild type)?
A: 0.5

Q: What about the EC50 ([5]; Hepatitis C virus, GT2A, 72 h, read-out: EC50 S282T) of the same compound?
A: 2340 nM

Q: And the EC50 [6]?
A: 0.5 nM

Q: And the Fold change ([7]; GT2b, S282T EC50 versus corresponding wild type)?
A: 0.9

Q: What about the EC50 ([7]; Hepatitis C virus, GT2B, 72 h, read-out: EC50 S282T) of the same compound?
A: 0.5 nM

Q: And the EC50 [8]?
A: 0.4 nM

Q: What about the Fold change ([9]; GT3a, S282T EC50 versus corresponding wild type) of the same compound?
A: 0.6

Q: What about the EC50 ([9]; Hepatitis C virus, GT3A, 72 h, read-out: EC50 S282T) of the same compound?
A: 0.2 nM

Q: What about the EC50 [10] of the same compound?
A: 0.5 nM

Q: And the Fold change ([11]; GT4a, S282T EC50 versus corresponding wild type)?
A: 0.8

Q: And the EC50 ([11]; Hepatitis C virus, GT4A, 72 h, read-out: EC50 S282T)?
A: 0.4 nM

Q: And the “increase of exposure of Compound 6 by Compound 2” value [12]?
A: approximately 5 ×

Q: And the “Fold Shift in EC50 (DRM EC50/1a-H77 EC50)” value (shortened to “Fold Shift in EC50”) [13]?
A: 25

Q: And the “Fold Shift in EC50” value [14]?
A: 73

Q: And the “Fold Shift in EC50” value [15]?
A: 170

Q: What about the “Fold Shift in EC50” value [16] of the same compound?
A: 997

Q: What about the “Fold Shift in EC50” value [17] of the same compound?
A: 140

Q: What about the “Fold Shift in EC50” value [18] of the same compound?
A: 327

Q: And the “Fold Shift in EC50” value [19]?
A: 3029

Q: And the “Cytotoxicity at Highest Concentration of Compound Combinations (% inhibition on cell growth)” value [20]?
A: 5.0 ± 5.0%

Q: What about the “Replicon RNA log drop” value (genotype 1b replicon RNA) of the same compound?
A: −1.4 log

Q: And the “Compound concentration able to induce replicon RNA 1-1.5 log drop in a 6 day assay” value (genotype 1b replicon RNA; genotype 1b replicon cells, 6 days)?
A: 0.004 nM

Q: What about the “Replicon RNA log drop” value (genotype 1b replicon RNA; single compound at the listed concentration, 6 days, relative to DMSO control (Table XIV)) of the same compound?
A: −1.4 log

Q: What about the Uncured colony number [21] of the same compound?
A: 634

Q: What about the EC50 (HCV genotype 1a replicon [22]) of the same compound?
A: 0.032 nM

Q: What about the Interaction (HCV genotype 1a replicon [23]; in combination with Compound 4) of the same compound?
A: Additivity (Additivity: ≤25 and >−25 nM^2%)

Q: And the “Antagonism Volume” value (HCV genotype 1a replicon [23]; [26])?
A: −7 ± 7 nM^2%

Q: And the “Synergy Volume” value (HCV genotype 1a replicon [23]; [26])?
A: 19 ± 17 nM^2%

Q: What about the “Interaction (cytotoxicity)” value ([24]; in combination with Compound 4) of the same compound?
A: Additivity (Additivity: ≤25 and >−25 nM^2%)

Q: And the “Antagonism Volume (cytotoxicity)” value [24, 26]?
A: 0 ± 0 nM^2%

Q: What about the “Synergy Volume (cytotoxicity)” value [24, 26] of the same compound?
A: 8 ± 4 nM^2%

Q: And the CC50 at 3 days [25]?
A: > 44400 nM
